The values that follow come from patent US7109243B2 (IRM LLC, priority 2003, dated 2006).

Assay [1] deals with T1, Cathepsin K (Homo sapiens, UniProt P43235).
T1 sequence (P43235 115-329): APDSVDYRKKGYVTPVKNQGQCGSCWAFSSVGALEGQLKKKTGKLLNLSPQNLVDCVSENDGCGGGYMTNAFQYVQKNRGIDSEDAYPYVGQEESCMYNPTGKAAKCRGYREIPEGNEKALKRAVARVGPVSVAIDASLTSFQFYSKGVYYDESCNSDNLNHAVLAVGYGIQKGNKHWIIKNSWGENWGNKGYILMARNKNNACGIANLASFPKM
Nature of the assay: Cathepsin K inhibition assay (fluorogenic peptide substrate); selectivity ratio vs cathepsin S. It is filed as biochemical. The conditions noted are these: ratio of cathepsin K inhibition constant to cathepsin S inhibition constant; Table II. Put shortly:
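Fluorogenic kinetic assay, started with acetyl-Lys-His-Pro-Lys-aminocarbamoylcoumarin at 40 μM final, hydrolysis followed at ex 380/em 450 nm. Apparent inhibition constants from progress curves, converted to competitive inhibition constants. Selectivity expressed as isozyme inhibition constant divided by cathepsin S inhibition constant.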

Assay [2] concerns the target Cathepsin S (Homo sapiens, UniProt P25774). The experiment in a line: Cathepsin S inhibition assay (fluorogenic peptide substrate). Particulars: Table II, compounds of Formula I; read-out: Ki Cat. S. It is filed as biochemical. The method in brief: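 Ki values come from nonlinear fitting of inhibited hydrolysis rates, taking free and total inhibitor concentrations as equal. Rates measured as rising fluorescence at 380/450 nm after reaction start with 50 μM final acetyl-HPVK-aminocarbamoylcoumarin.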

Where only a bound is given, the exact number is not on record here.

One may read the Ki as the dissociation constant of the complex between target and ligand, obtained from inhibition or displacement.

Chain of Cathepsin S (P25774 115-331, species assumed): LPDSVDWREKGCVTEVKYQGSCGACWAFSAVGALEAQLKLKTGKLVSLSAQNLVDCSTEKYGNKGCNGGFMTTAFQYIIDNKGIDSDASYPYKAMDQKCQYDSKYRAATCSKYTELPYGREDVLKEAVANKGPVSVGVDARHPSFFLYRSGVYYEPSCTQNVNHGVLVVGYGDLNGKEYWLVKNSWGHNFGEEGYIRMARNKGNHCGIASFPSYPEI

In the case of `COc1ccc(NCCNC(=O)[C@H](CC2CCCCC2)NC(=O)c2c[nH]c3ccccc23)cc1` [Compound 185, (S)-1H-Indole-3-carboxylic acid {2-cyclohexyl-1-[2-(4-methoxy-phenylamino)-ethylcarbamoyl]-ethyl}-amide], the “Selectivity for Cat. S over Cat. K” value in assay [1] is “++ (++, >100)”. In addition, the Ki in assay [2] was less than 100 nM.
With `COc1ccc(NCCNC(=O)[C@H](CC2CCCCC2)NC(=O)c2ccc3ncsc3c2)cc1` [Compound 186, (S)-Benzothiazole-6-carboxylic acid {2-cyclohexyl-1-[2-(4-methoxy-phenylamino)-ethylcarbamoyl]-ethyl}-amide], in assay [1], the “Selectivity for Cat. S over Cat. K” value is on record as “++ (++, >100)”. Also, the Ki in assay [2] was less than 100 nM.
`COc1ccc(NCCNC(=O)[C@H](CC2CCCCC2)NC(=O)c2ccc3nc(N)sc3c2)cc1` [Compound 187, (S)-2-Amino-benzothiazole-6-carboxylic acid {2-cyclohexyl-1-[2-(4-methoxy-phenylamino)-ethylcarbamoyl]-ethyl}-amide]: in assay [1], the “Selectivity for Cat. S over Cat. K” value was “+ (+, >10)”. In assay [2], the Ki was less than 100 nM.
For `COc1ccc(NCCNC(=O)[C@H](CC2CCCCC2)NC(=O)c2sc(-c3ccc(C(F)(F)F)cc3)nc2C)cc1` [Compound 188, (S)-4-Methyl-2-(4-trifluoromethyl-phenyl)-thiazole-5-carboxylic acid {2-cyclohexyl-1-[2-(4-methoxy-phenylamino)-ethylcarbamoyl]-ethyl}-amide], the “Selectivity for Cat. S over Cat. K” value in assay [1] is given as “+++ (+++, >1000)”. Further, in assay [2], the inhibition constant (Ki) is less than 100 nM.
In the case of `COc1ccc(NCCNC(=O)[C@H](CC2CCCCC2)NC(=O)c2cc(-c3ccc(Cl)cc3)cs2)cc1` [Compound 189, (S)-4-(4-Chloro-phenyl)-thiophene-2-carboxylic acid {2-cyclohexyl-1-[2-(4-methoxy-phenylamino)-ethylcarbamoyl]-ethyl}-amide], the “Selectivity for Cat. S over Cat. K” value in assay [1] is given as “++ (++, >100)”. In addition, in assay [2], the inhibitory constant (Ki) was less than 100 nM.
As to `COc1ccc(NCCNC(=O)[C@H](CC2CCCCC2)NC(=O)c2nc(C)oc2C(F)(F)F)cc1` [Compound 190, (S)-2-Methyl-5-trifluoromethyl-oxazole-4-carboxylic acid {2-cyclohexyl-1-[2-(4-methoxy-phenylamino)-ethylcarbamoyl]-ethyl}-amide], the “Selectivity for Cat. S over Cat. K” value in assay [1] is reported as “+++ (+++, >1000)”. Also, the Ki in assay [2] was less than 100 nM.
As for `COc1ccc(NCCNC(=O)[C@H](CC2CCCCC2)NC(=O)c2cc(-c3ccc(OC)cc3)cs2)cc1` [Compound 191, (S)-4-(4-Methoxy-phenyl)-thiophene-2-carboxylic acid {2-cyclohexyl-1-[2-(4-methoxy-phenylamino)-ethylcarbamoyl]-ethyl}-amide], in assay [1], the “Selectivity for Cat. S over Cat. K” value was “+ (+, >10)”. The Ki in assay [2] was less than 100 nM.
As to `COc1ccc(NCCNC(=O)[C@H](CC2CCCCC2)NC(=O)[C@@H](C)c2ccccc2)cc1` [Compound 192, N-{2-Cyclohexyl-1-(S)-[2-(4-methoxy-phenylamino)-ethylcarbamoyl]-ethyl}-2-(S)-phenyl-propionamide], the “Selectivity for Cat. S over Cat. K” value in assay [1] is given as “+++ (+++, >1000)”. The inhibition constant (Ki) in assay [2] was less than 100 nM.
With `COc1ccc(NCCNC(=O)[C@H](CC2CCCCC2)NC(=O)c2ccc(-c3cc(C(F)(F)F)ccc3Cl)o2)cc1` [Compound 193, (S)-5-(2-Chloro-5-trifluoromethyl-phenyl)-furan-2-carboxylic acid {2-cyclohexyl-1-[2-(4-methoxy-phenylamino)-ethylcarbamoyl]-ethyl}-amide], the “Selectivity for Cat. S over Cat. K” value in assay [1] was “++ (++, >100)”. Further, the Ki in assay [2] was less than 100 nM.
For `O=C(N[C@@H](CC1CCCCC1)C(=O)NCCNc1ccc(OC(F)(F)F)cc1)c1ccc(-c2ccccc2Cl)cc1` [Compound 194, (S)-2′-Chloro-biphenyl-4-carboxylic acid {2-cyclohexyl-1-[2-(4-trifluoromethoxy-phenylamino)-ethylcarbamoyl]-ethyl}-amide], in assay [1], the “Selectivity for Cat. S over Cat. K” value was “+ (+, >10)”. Moreover, the inhibition constant Ki in assay [2] was less than 1000 nM.
For the molecule `O=C(N[C@@H](CC1CCCCC1)C(=O)NCCNc1ccc(OC(F)(F)F)cc1)c1ccc(-c2cccc(F)c2)cc1` [Compound 198, (S)-3′-Fluoro-biphenyl-4-carboxylic acid {2-cyclohexyl-1-[2-(4-trifluoromethoxy-phenylamino)-ethylcarbamoyl]-ethyl}-amide], the “Selectivity for Cat. S over Cat. K” value in assay [1] is reported as “+ (+, >10)”. Moreover, in assay [2], the Ki was less than 1000 nM.
Consider `COc1ccc(NCCNC(=O)[C@H](CC2CCCCC2)NC(=O)c2cccc(CN)c2)cc1` [Compound 199, (S)-3-Aminomethyl-N-{2-cyclohexyl-1-[2-(4-methoxy-phenylamino)-ethylcarbamoyl]-ethyl}-benzamide], for which the “Selectivity for Cat. S over Cat. K” value in assay [1] is reported as “++ (++, >100)”. In assay [2], the inhibitory constant (Ki) is less than 1000 nM.
With `O=C(N[C@@H](CC1CCCCC1)C(=O)NCCNc1ccc(OC(F)(F)F)cc1)c1cccc(CN2CCOCC2)c1` [Compound 200, (S)-N-{2-Cyclohexyl-1-[2-(4-trifluoromethoxy-phenylamino)-ethylcarbamoyl]-ethyl}-3-morpholin-4-ylmethyl-benzamide], the “Selectivity for Cat. S over Cat. K” value in assay [1] is reported as “+ (+, >10)”. In addition, the Ki in assay [2] was less than 100 nM.
Take `O=C(N[C@@H](CC1CCCCC1)C(=O)NCCNc1ccc(OC(F)(F)F)cc1)c1ccc(-c2ccccc2F)s1` [Compound 201, (S)-5-(2-Fluoro-phenyl)-thiophene-2-carboxylic acid {2-cyclohexyl-1-[2-(4-trifluoromethoxy-phenylamino)-ethylcarbamoyl]-ethyl}-amide]: in assay [1], the “Selectivity for Cat. S over Cat. K” value is given as “++ (++, >100)”. The inhibition constant Ki in assay [2] was less than 100 nM.
As for `COc1ccc(NCCNC(=O)[C@H](CCCC2CCCCC2)NC(=O)c2cccc(C)c2)cc1` [Compound 203, (S)-N-{4-Cyclohexyl-1-[2-(4-methoxy-phenylamino)-ethylcarbamoyl]-butyl}-3-methyl-benzamide], in assay [1], the “Selectivity for Cat. S over Cat. K” value is “+++ (+++, >1000)”. Further, in assay [2], the inhibition constant (Ki) is less than 100 nM.
Take `O=C(N[C@@H](CC1CCCCC1)C(=O)NCCNc1ccc(OC(F)(F)F)cc1)c1ccc(-c2ccc(C(F)(F)F)cc2)s1` [Compound 205, (S)-5-(4-Trifluoromethyl-phenyl)-thiophene-2-carboxylic acid {2-cyclohexyl-1-[2-(4-trifluoromethoxy-phenylamino)-ethylcarbamoyl]-ethyl}-amide]: the “Selectivity for Cat. S over Cat. K” value in assay [1] is on record as “++ (++, >100)”. Further, the Ki in assay [2] was less than 100 nM.
In the case of `COc1ccc(NCCNC(=O)[C@H](CCc2ccccc2)NC(=O)c2cccc(C)c2)cc1` [Compound 206, (S)-N-{1-[2-(4-Methoxy-phenylamino)-ethylcarbamoyl]-3-phenyl-propyl}-3-methyl-benzamide], in assay [1], the “Selectivity for Cat. S over Cat. K” value is recorded as “++ (++, >100)”. Moreover, the Ki in assay [2] was less than 1000 nM.
For `O=C(N[C@@H](CC1CCCCC1)C(=O)NCCNc1ccc(OC(F)(F)F)cc1)c1ccc(-c2ccc(OC(F)(F)F)cc2)s1` [Compound 207, (S)-5-(4-Trifluoromethoxy-phenyl)-thiophene-2-carboxylic acid {2-cyclohexyl-1-[2-(4-trifluoromethoxy-phenylamino)-ethylcarbamoyl]-ethyl}-amide], the “Selectivity for Cat. S over Cat. K” value in assay [1] is on record as “++ (++, >100)”. In addition, the Ki in assay [2] was less than 1000 nM.
On to `COc1ccc(NCCNC(=O)[C@H](CC=Cc2ccccc2)NC(=O)c2cccc(C)c2)cc1` [Compound 208, (S)-N-{1-[2-(4-Methoxy-phenylamino)-ethylcarbamoyl]-4-phenyl-but-3-enyl}-3-methyl-benzamide], for which, in assay [1], the “Selectivity for Cat. S over Cat. K” value is “+++ (+++, >1000)”. Also, the inhibition constant Ki in assay [2] was less than 100 nM.
Regarding `O=C(N[C@@H](CC1CCCCC1)C(=O)NCCNc1ccc(OC(F)(F)F)cc1)c1ccc(-c2cccc(OC(F)(F)F)c2)s1` [Compound 209, (S)-5-(3-Trifluoromethoxy-phenyl)-thiophene-2-carboxylic acid {2-cyclohexyl-1-[2-(4-trifluoromethoxy-phenylamino)-ethylcarbamoyl]-ethyl}-amide], the “Selectivity for Cat. S over Cat. K” value in assay [1] was “+++ (+++, >1000)”. Further, in assay [2], the inhibition constant (Ki) is less than 100 nM.
For the molecule `COc1ccccc1-c1ccc(C(=O)N[C@@H](CC2CCCCC2)C(=O)NCCNc2ccc(OC(F)(F)F)cc2)o1` [Compound 210, (S)-5-(2-Methoxy-phenyl)-furan-2-carboxylic acid {2-cyclohexyl-1-[2-(4-trifluoromethoxy-phenylamino)-ethylcarbamoyl]-ethyl}-amide], the “Selectivity for Cat. S over Cat. K” value in assay [1] was “++ (++, >100)”. For the same molecule, in assay [2], the Ki is less than 100 nM.
Take `COc1ccc(NCCNC(=O)C(NC(=O)c2cccc(C)c2)c2ccc(OC)cc2)cc1` (stereo not shown) [Compound 211, N-{(4-Methoxy-phenyl)-[2-(4-methoxy-phenylamino)-ethylcarbamoyl]-methyl}-3-methyl-benzamide]: in assay [1], the “Selectivity for Cat. S over Cat. K” value was “++ (++, >100)”. The inhibitory constant (Ki) in assay [2] is less than 1000 nM.
In the case of `O=C(N[C@@H](CC1CCCCC1)C(=O)NCCNc1ccc(OC(F)(F)F)cc1)c1ccc(-c2ccccc2F)o1` [Compound 212, (S)-5-(2-Fluoro-phenyl)-furan-2-carboxylic acid {2-cyclohexyl-1-[2-(4-trifluoromethoxy-phenylamino)-ethylcarbamoyl]-ethyl}-amide], the “Selectivity for Cat. S over Cat. K” value in assay [1] is given as “++ (++, >100)”. For the same molecule, the Ki in assay [2] was less than 100 nM.
